Source: ChEMBL document CHEMBL3596144, “New Indole Tubulin Assembly Inhibitors Cause Stable Arrest of Mitotic Progression, Enhanced Stimulation of Natural Killer Cell Cytotoxic Activity, and Repression of Hedgehog-Dependent Cancer” (J Med Chem, 2015)
Calls of active or inactive are those of the source. The calls are words filed in the database; no cut-off is given here.

Columns and labels:
HeLa [1] = experiment: Upregulation of DNAM1 ligand expression in human HeLa cells after 48 hrs by immunofluorescence staining-based flow cytometric analysis; type: functional, cell-based
HeLa [2] = experiment: Upregulation of NKG2D ligand expression in human HeLa cells after 48 hrs by immunofluorescence staining-based flow cytometric analysis; type: functional, cell-based
[3] = target: Protein smoothened (Mus musculus) (UniProt P56726); experiment: Antagonist activity at smo receptor in mouse NIH3T3 Shh-Light II cells assessed as inhibition of SAG-induced hedgehog pathway after 48 hrs by dual luciferase reporter gene assay; type: cell-based
[4] = Intrinsic clearance in mouse liver microsomes assessed per mg of protein preincubated for 10 mins followed by NADP/Glc6P/G6P-DH addition by LC-MS/MS analysis; type: ADME; conditions: read-out: CLH
[5] = Intrinsic clearance in human liver microsomes assessed per mg of protein preincubated for 10 mins followed by NADP/Glc6P/G6P-DH addition by LC-MS/MS analysis; type: ADME; conditions: read-out: CLH
PC-3 [6] = experiment: Cell cycle arrest in human PC3 cells assessed as accumulation at G2/M phase at 500 to 2000 nM after 24 hrs by propidium iodide staining-based flow cytometric analysis; type: functional
HepG2 [7] = experiment: Cell cycle arrest in human HepG2 cells assessed as accumulation at G2/M phase at 500 to 2000 nM after 24 hrs by propidium iodide staining-based flow cytometric analysis; type: functional
NCI-H1975 = experiment: Cytotoxicity against human NCI-H1975 cells assessed as growth inhibition after 72 hrs by CellTiter-Fluor assay; type: functional, cell-based; conditions: NCI-H1975, 72 h
RD [8] = experiment: Cytotoxicity against human RD cells assessed as growth inhibition after 48 hrs by MTT assay; type: functional, cell-based
PC-3 [9] = experiment: Induction of apoptosis in human PC3 cells after 48 hrs by propidium iodide/annexin V-FITC staining-based cytofluorometric analysis; type: functional, cell-based
OVCAR-8 = experiment: cells; conditions: Homo sapiens, OVCAR-8, 48 h
Description: Cytotoxicity against human OVCAR8 cells assessed as growth inhibition after 48 hrs by SRB assay

RD [10] = experiment: Induction of apoptosis in human RD cells at 500 nM after 48 hrs by propidium iodide/annexin V-FITC staining-based cytofluorometric analysis; type: functional, cell-based
HepG2 [11] = experiment: Induction of apoptosis in human HepG2 cells after 48 hrs by propidium iodide/annexin V-FITC staining-based cytofluorometric analysis; type: functional, cell-based
RD [12] = experiment: Cell cycle arrest in human RD cells assessed as accumulation at G2/M phase at 500 to 2000 nM after 24 hrs by propidium iodide staining-based flow cytometric analysis; type: functional
PC-3 [13] = experiment: cells; conditions: Homo sapiens, PC-3, 48 h
Description: Cytotoxicity against human PC3 cells assessed as growth inhibition after 48 hrs by MTT assay

[14] = Cytotoxicity against human MESSA/DX5 cells assessed as growth inhibition after 72 hrs by CellTiter-Glo assay; type: functional, cell-based; conditions: MES-SA/Dx5, 72 h
HeLa [15] = experiment: Induction of apoptosis in human HeLa cells at 20 nM after 24 hrs by propidium iodide/annexin V-FITC staining-based cytofluorometric analysis; type: functional, cell-based
HeLa [16] = experiment: Cell cycle arrest in human HeLa cells assessed as accumulation at sub-G1 phase at 20 nM after 24 hrs by propidium iodide staining-based flow cytometric analysis; type: functional
[17] = Cytotoxicity against human MESSA cells assessed as growth inhibition after 72 hrs by CellTiter-Glo assay; type: functional, cell-based; conditions: MES-SA
cells = conditions: Homo sapiens, NCI/ADR-RES, 48 h
Description: Cytotoxicity against Pgp overexpressing human NCI-ADR-RES cells assessed as growth inhibition after 48 hrs by SRB assay

HeLa [18] = experiment: Cell cycle arrest in human HeLa cells assessed as accumulation at G2/M phase at 20 nM after 24 hrs by propidium iodide staining-based flow cytometric analysis; type: functional
HeLa [19] = experiment: Inhibition of microtubule polymerization in human HeLa cells assessed as appearance of tubulin foci and/or small asters of short microtubule fragments at 20 nM after 24 hrs by immunofluorescence staining-based microscopic analysis; type: cell-based

Chain of Protein smoothened (Mus musculus) (P56726 whole entry): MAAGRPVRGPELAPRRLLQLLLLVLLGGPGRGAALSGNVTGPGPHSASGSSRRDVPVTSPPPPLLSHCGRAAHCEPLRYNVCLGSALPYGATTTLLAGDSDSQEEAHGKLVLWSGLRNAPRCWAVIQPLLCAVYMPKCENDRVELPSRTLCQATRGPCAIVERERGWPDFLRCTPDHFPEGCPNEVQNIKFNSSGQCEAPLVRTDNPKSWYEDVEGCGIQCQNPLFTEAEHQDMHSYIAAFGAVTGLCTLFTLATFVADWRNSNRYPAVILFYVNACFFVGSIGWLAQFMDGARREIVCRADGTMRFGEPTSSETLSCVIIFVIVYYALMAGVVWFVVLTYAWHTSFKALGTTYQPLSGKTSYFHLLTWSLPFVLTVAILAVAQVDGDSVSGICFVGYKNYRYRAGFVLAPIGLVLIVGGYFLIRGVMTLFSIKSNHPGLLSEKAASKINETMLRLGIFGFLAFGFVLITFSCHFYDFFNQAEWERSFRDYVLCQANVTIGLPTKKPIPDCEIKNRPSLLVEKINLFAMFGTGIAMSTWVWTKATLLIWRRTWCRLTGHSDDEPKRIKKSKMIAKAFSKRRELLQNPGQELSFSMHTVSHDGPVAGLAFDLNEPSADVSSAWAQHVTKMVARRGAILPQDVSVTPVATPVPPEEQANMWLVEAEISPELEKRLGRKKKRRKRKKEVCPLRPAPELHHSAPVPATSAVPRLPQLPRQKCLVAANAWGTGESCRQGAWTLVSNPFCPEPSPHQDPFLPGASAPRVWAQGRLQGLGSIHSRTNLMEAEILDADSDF

For `COc1cc(C(=O)c2ccn(-c3cccc(N)c3)c2)cc(OC)c1OC`, the Activity (HeLa [1]) was “inactive” and the Activity (HeLa [2]) was “inactive”.
With `COc1cc(Sc2c(-c3ccccc3)[nH]c3c(Cl)c(Cl)ccc23)cc(OC)c1OC` the inhibition [3] was “Dose-dependent effect”.
For `COc1cc(Sc2c(-n3ccnc3)[nH]c3ccccc23)cc(OC)c1OC`, the inhibition [3] was “Dose-dependent effect”.
In the case of `COc1ccc2c(Sc3cc(OC)c(OC)c(OC)c3)c(-c3ccccc3)[nH]c2c1`, the inhibition [3] is reported as “Dose-dependent effect”.
With `CCOc1ccc2ccc(=O)oc2c1` [ETHOXYCOUMARIN] the microsomal CLint [4] was 711 µL/min/mg and the microsomal CLint [5] was 209 µL/min/mg.
In the case of `CC(=O)O[C@H]1C(=O)[C@@]2(C)[C@H]([C@H](OC(=O)c3ccccc3)[C@]3(O)C[C@H](OC(=O)[C@H](O)[C@@H](NC(=O)c4ccccc4)c4ccccc4)C(C)=C1C3(C)C)[C@]1(OC(C)=O)CO[C@@H]1C[C@@H]2O` [PACLITAXEL], the Activity (PC-3 [6]) is reported as “Active”, the Activity (HepG2 [7]) is reported as “Active” and the IC50 (NCI-H1975) is reported as 2.5 nM. For the same molecule, the IC50 (RD [8]) was > 10000 nM, the Activity (PC-3 [9]) was “Dose-dependent effect” and the IC50 (OVCAR-8) was 3.7 nM. The Activity (RD [10]) was “Active”, the Activity (HepG2 [11]) was “Dose-dependent effect” and the Activity (RD [12]) was “Active”.
In the case of `CC[C@]1(O)C[C@@H]2CN(CCc3c([nH]c4ccccc34)[C@@](C(=O)OC)(c3cc4c(cc3OC)N(C)[C@H]3[C@@](O)(C(=O)OC)[C@H](OC(C)=O)[C@]5(CC)C=CCN6CC[C@]43[C@@H]65)C2)C1` [VINBLASTINE], the IC50 (PC-3 [13]) is reported as 766 nM, the IC50 [14] is reported as 144 nM and the Activity (HeLa [15]) is reported as “Active”. For the same molecule, the Activity (HeLa [16]) was “Active”, the IC50 [17] was 3 nM and the IC50 (cells) was 200 nM. The Activity (HeLa [18]) was >80% and the inhibition (HeLa [19]) was “Active”.
With `CCC1=C[C@@H]2CN(C1)Cc1c([nH]c3ccccc13)[C@@](C(=O)OC)(c1cc3c(cc1OC)N(C)[C@H]1[C@@](O)(C(=O)OC)[C@H](OC(C)=O)[C@]4(CC)C=CCN5CC[C@]31[C@@H]54)C2` [VINORELBINE] the IC50 (cells) was 5000 nM.
